Patent USRE39609E1, “8-iso-prostaglandins for glaucoma therapy” (Mount Sinai School of Medicine of New York University, priority 1997, dated 2007)

Experiments:
Format in all cases: in vivo
[1] = system: laser-induced glaucomatous eyes in cynomolgus monkeys; test: Intraocular pressure after single topical dose in glaucomatous monkey eyes; conditions: for Intraocular Pressure (treated - baseline) (mean ± SEM) / relative activity in decreasing IOP among the compounds tested: glaucomatous monkey eyes; for maximum reduction in IOP (mean SEM) / time for which IOP was reduced (p<0.05): single 25 μl dose of 0.1 percent, laser-induced glaucomatous eyes, cynomolgus monkeys; for relative activity in decreasing IOP among the compounds tested: 0.1 percent; for maximum reduction in IOP (mean±SEM) as compared to baseline / time for which IOP was reduced (p<0.005): single 25 μl dose
Experimental: Experiments were performed to evaluate the effects of single dose administration of 8-iso PGE2 an IOP in normal (“N”) and glaucomatous (“G”) monkey eyes, and to determine the mechanism by which 8-iso PGE2 alters IOP in N monkey eyes, when applied topically. A single 25 μl dose study was performed in 6 N and 8 G monkeys. IOP and pupil sizes were measured before and at 0 hr, 0.5 hr and then hourly for a total of 6 hrs after 0.05% or 0.1% drug concentrations were administered. Tonographic outflow facility (“C”) and fluorophotometric aqueous humor flow (F) were determined in 6 N monkeys before and after unilateral application of 25 μl of 0.1% 8-iso PGE2. In 8 G monkey eyes, 8-isoPGE2 reduced IOP (p<0.005) up to 2 hrs or 5 hrs following administration of the 0.05% or 0.1% concentration, respectively. The maximum reduction in IOP was 4.6±0.8 (mean±SEM)mm Hg (0.05%) and 6.6±0.8 mm Hg (0.1%), as compared to baseline measurements. After topical application of 8-iso PGE2 the IOP was lower (p<0.01) in the treated eyes of 6 N monkeys for 4 hrs, with a maximum difference of 3.2±0.2 mmHg, as compared to the fellow contralateral control eyes. The pupil size was smaller (p<0.01) for 4 hrs, up to 1.0±0.2 mm. Compared with vehicle-treated contralateral control eyes, C was greater (p<0.005) by 48% at 2 hr after a single dose of 0.1% 8-iso PGE2. F was unchanged (p<0.10) over a period of 4 hrs after drug administration. […] Because of the individual variability in laser-induced glaucomatous monkey eyes, the IOP and facility measurements are expressed in the table as ratios (value of the drug-treated eye+the value of the vehicle-treated eye). The ratios were calculated from the values of the same glaucomatous monkey eye determined immediately prior to administration of the drug or the vehicle (time 0 hrs.), and the values at 2 hours after administration of the drug or vehicle. […] Thus the mechanism of lowering IOP by 8-iso PGE2 in both normal and glaucomatous eyes is primarily due to an increase in aqueous humor trabecular outflow. IOP was measured one hour before and at intervals up to six hours after a single dose of 8-iso PGE, (the 13, 14 dihydro derivative of 8-iso PGE2), 8-iso PGE2, or 8-iso PGF2α in laser-induced glaucomatous eyes in cynomolgus monkeys (wherein only one eye is rendered glaucomatous and the other serves as a control). Following one day of baseline IOP measurement, a single 25 μl dose of either (i) 0.1 percent 8-iso PGE1, or (ii) 0.1 percent 8-iso PGE2, or (iii) 0.1 percent 8-iso PGF2α, was topically applied to the glaucomatous eye in groups of 4 or 8 monkeys. […] The maximum reduction in IOP was 5.3±0.8 (mean SEM) mm Hg at 2 hours after dosing 8-iso PGE2 (0.1 percent) reduced IOP (p<0.05) for 5 hours with a maximum reduction in IOP of 6.6±0.8 mm Hg at 2 hours after dosing (n=8). […] Based on these studies, of the compounds tested, 8-iso PGE2 appears to have the greatest and 8-iso PGF2α, the least activity in decreasing IOP in glaucomatous monkey eyes.

normal monkey eyes [2] = test: Pupil size after topical application in normal monkeys
Experimental: (§1) Experiments were performed to evaluate the effects of single dose administration of 8-iso PGE2 an IOP in normal (“N”) and glaucomatous (“G”) monkey eyes, and to determine the mechanism by which 8-iso PGE2 alters IOP in N monkey eyes, when applied topically. A single 25 μl dose study was performed in 6 N and 8 G monkeys. IOP and pupil sizes were measured before and at 0 hr, 0.5 hr and then hourly for a total of 6 hrs after 0.05% or 0.1% drug concentrations were administered. Tonographic outflow facility (“C”) and fluorophotometric aqueous humor flow (F) were determined in 6 N monkeys before and after unilateral application of 25 μl of 0.1% 8-iso PGE2. In 8 G monkey eyes, 8-isoPGE2 reduced IOP (p<0.005) up to 2 hrs or 5 hrs following administration of the 0.05% or 0.1% concentration, respectively. The maximum reduction in IOP was 4.6±0.8 (mean±SEM)mm Hg (0.05%) and 6.6±0.8 mm Hg (0.1%), as compared to baseline measurements. After topical application of 8-iso PGE2 the IOP was lower (p<0.01) in the treated eyes of 6 N monkeys for 4 hrs, with a maximum difference of 3.2±0.2 mmHg, as compared to the fellow contralateral control eyes. The pupil size was smaller (p<0.01) for 4 hrs, up to 1.0±0.2 mm. Compared with vehicle-treated contralateral control eyes, C was greater (p<0.005) by 48% at 2 hr after a single dose of 0.1% 8-iso PGE2. […]

glaucomatous monkey eyes = test: Outflow facility in glaucomatous monkey eyes; conditions: 0.1%, 8 glaucomatous monkey eyes
Experimental: Because of the individual variability in laser-induced glaucomatous monkey eyes, the IOP and facility measurements are expressed in the table as ratios (value of the drug-treated eye+the value of the vehicle-treated eye). The ratios were calculated from the values of the same glaucomatous monkey eye determined immediately prior to administration of the drug or the vehicle (time 0 hrs.), and the values at 2 hours after administration of the drug or vehicle. […] Thus the mechanism of lowering IOP by 8-iso PGE2 in both normal and glaucomatous eyes is primarily due to an increase in aqueous humor trabecular outflow.

monkey eyes = test: Ocular side effects after topical dosing in monkey eyes; conditions: eyes treated with the 0.1% concentration
Experimental: as §1

normal monkey eyes [3] = test: Intraocular pressure after single topical dose in normal monkey eyes
Experimental: Experiments were performed to evaluate the effects of single dose administration of 8-iso PGE2 an IOP in normal (“N”) and glaucomatous (“G”) monkey eyes, and to determine the mechanism by which 8-iso PGE2 alters IOP in N monkey eyes, when applied topically. A single 25 μl dose study was performed in 6 N and 8 G monkeys. […] Tonographic outflow facility (“C”) and fluorophotometric aqueous humor flow (F) were determined in 6 N monkeys before and after unilateral application of 25 μl of 0.1% 8-iso PGE2. In 8 G monkey eyes, 8-isoPGE2 reduced IOP (p<0.005) up to 2 hrs or 5 hrs following administration of the 0.05% or 0.1% concentration, respectively. The maximum reduction in IOP was 4.6±0.8 (mean±SEM)mm Hg (0.05%) and 6.6±0.8 mm Hg (0.1%), as compared to baseline measurements. After topical application of 8-iso PGE2 the IOP was lower (p<0.01) in the treated eyes of 6 N monkeys for 4 hrs, with a maximum difference of 3.2±0.2 mmHg, as compared to the fellow contralateral control eyes. The pupil size was smaller (p<0.01) for 4 hrs, up to 1.0±0.2 mm. Compared with vehicle-treated contralateral control eyes, C was greater (p<0.005) by 48% at 2 hr after a single dose of 0.1% 8-iso PGE2. F was unchanged (p<0.10) over a period of 4 hrs after drug administration.

normal monkey eyes [4] = test: Tonographic outflow facility (C) in normal monkeys
Experimental: Experiments were performed to evaluate the effects of single dose administration of 8-iso PGE2 an IOP in normal (“N”) and glaucomatous (“G”) monkey eyes, and to determine the mechanism by which 8-iso PGE2 alters IOP in N monkey eyes, when applied topically. A single 25 μl dose study was performed in 6 N and 8 G monkeys. […] In 8 G monkey eyes, 8-isoPGE2 reduced IOP (p<0.005) up to 2 hrs or 5 hrs following administration of the 0.05% or 0.1% concentration, respectively. The maximum reduction in IOP was 4.6±0.8 (mean±SEM)mm Hg (0.05%) and 6.6±0.8 mm Hg (0.1%), as compared to baseline measurements. After topical application of 8-iso PGE2 the IOP was lower (p<0.01) in the treated eyes of 6 N monkeys for 4 hrs, with a maximum difference of 3.2±0.2 mmHg, as compared to the fellow contralateral control eyes. The pupil size was smaller (p<0.01) for 4 hrs, up to 1.0±0.2 mm. […] F was unchanged (p<0.10) over a period of 4 hrs after drug administration.

normal monkey eyes [5] = test: Fluorophotometric aqueous humor flow (F) in normal monkeys; conditions: 6 normal monkeys, over 4 hrs after 25 μl of 0.1%
Experimental: as §1

[6] = 0.1%, 2 hours after treatment, 6 normal monkeys (Table 1A)
[7] = 0.005%, 6 normal monkeys, 1 hour after treatment
[8] = 0.005%, 1 hour after treatment, 6 normal monkeys (Table 1B)

CCCCC[C@H](O)/C=C/[C@H]1[C@H](O)CC(=O)[C@H]1CCCCCCC(=O)O [8-iso PGE1, 8-iso, 5,6 dihydro prostaglandin E2]
Intraocular Pressure (treated - baseline) (mean ± SEM) ([1]; 0.1%, 1 hr): −3.3 ± 1.3 mm Hg | Intraocular Pressure (treated - baseline) (mean ± SEM) ([1]; 0.1%, 2 hr): −5.3 ± 0.8 mm Hg | Intraocular Pressure (treated - baseline) (mean ± SEM) ([1]; 0.1%, 4 hr): −2.3 ± 0.5 mm Hg | Intraocular Pressure (treated - baseline) (mean ± SEM) ([1]; 0.1%, 6 hr): −1.3 ± 0.9 mm Hg | maximum reduction in IOP (mean SEM) [1]: 5.3±0.8 mm Hg | time for which IOP was reduced (p<0.05) [1]: up to four

CCCCC[C@H](O)/C=C/[C@H]1[C@H](O)CC(=O)[C@H]1C/C=C\CCCC(=O)O [8-iso PGE2, prosta-5,13-dien-1-oic acid, 11,15-dihydroxy-9-oxo, (5Z, 8β, 11α, 13E,15S)]
reduction in pupil size (normal monkey eyes [2]): up to 1.0±0.2 mm | time for which pupil size was smaller (p<0.01) (normal monkey eyes [2]): 4 h | Outflow facility response ratio (drug-treated/vehicle treated) (glaucomatous monkey eyes; 2 hr): 1.445 ± | % change by drug in outflow facility (glaucomatous monkey eyes; 2 hr vs 0 hr): 38.8% | ocular side effects (monkey eyes): Mild eyelid edema, conjunctival edema, hyperemia, and discharge appeared in some eyes | Intraocular Pressure Mean ± SEM, treated eyes (drug) (normal monkey eyes [3]; 0.1%, 6 normal monkeys, 2 hours after treatment): 13.0 ± 0.7 mmHg | lowering of IOP in normal monkey eye (normal monkey eyes [3]; [6]): 20.3% | maximum difference in IOP as compared to fellow contralateral control eyes (normal monkey eyes [3]; 6 normal monkeys, topical application): 3.2±0.2 mmHg | time for which IOP was lower (p<0.01) in treated eyes (normal monkey eyes [3]; 6 normal monkeys, topical application, vs fellow contralateral control eyes): 4 h | increase of outflow facility in normal monkey eye (normal monkey eyes [4]; [6]): 43.1% | outflow facility C greater compared with vehicle-treated contralateral control eyes (p<0.005) (normal monkey eyes [4]; 6 normal monkeys, 2 hr after single 25 μl dose of 0.1%): 48% | aqueous humor flow F change (normal monkey eyes [5]): unchanged | Intraocular Pressure response ratio (drug-treated/vehicle-treated) ([1]; 0.1%, 8 glaucomatous monkey eyes, 2 hr): 0.843 ± | % change by drug in intraocular pressure (decrease) ([1]; 0.1%, 8 glaucomatous monkey eyes, 2 hr vs 0 hr): 13.8% | Intraocular Pressure (treated - baseline) (mean ± SEM) ([1]; 0.1%, 1 hr): −4.5 ± 0.9 mm Hg | Intraocular Pressure (treated - baseline) (mean ± SEM) ([1]; 0.1%, 2 hr): −6.6 ± 0.8 mm Hg | Intraocular Pressure (treated - baseline) (mean ± SEM) ([1]; 0.1%, 4 hr): −2.9 ± 0.6 mm Hg | Intraocular Pressure (treated - baseline) (mean ± SEM) ([1]; 0.1%, 6 hr): −1.2 ± 1.2 mm Hg | relative activity in decreasing IOP among the compounds tested [1]: greatest | maximum reduction in IOP (mean±SEM) as compared to baseline ([1]; 8 glaucomatous monkey eyes, 0.05%): 4.6±0.8 mm Hg | time for which IOP was reduced (p<0.005) ([1]; 8 glaucomatous monkey eyes, 0.05% concentration): up to 2 hrs | maximum reduction in IOP (mean±SEM) as compared to baseline ([1]; 8 glaucomatous monkey eyes, 0.1%): 6.6±0.8 mm Hg | time for which IOP was reduced (p<0.005) ([1]; 8 glaucomatous monkey eyes, 0.1% concentration): ≤ 5 h | maximum reduction in IOP (mean SEM) [1]: 6.6±0.8 mm Hg | time for which IOP was reduced (p<0.05) [1]: 5 h

CCCCC[C@H](O)/C=C/[C@@H]1[C@H](C/C=C\CCCC(=O)O)[C@@H](O)C[C@H]1O [8-iso PGF2α, prosta-5,13-dien-1-oic acid, 9, 11, 15-trihydroxy-, (5Z, 8β, 9α, 11α, 13E, 15S)-]
Intraocular Pressure (treated - baseline) (mean ± SEM) ([1]; 0.1%, 1 hr): −3.3 ± 0.8 mm Hg | Intraocular Pressure (treated - baseline) (mean ± SEM) ([1]; 0.1%, 2 hr): −1.8 ± 1.1 mm Hg | Intraocular Pressure (treated - baseline) (mean ± SEM) ([1]; 0.1%, 4 hr): −0.8 ± 1.7 mm Hg | Intraocular Pressure (treated - baseline) (mean ± SEM) ([1]; 0.1%, 6 hr): 0.3 ± 0.5 mm Hg | relative activity in decreasing IOP among the compounds tested [1]: least | maximum reduction in IOP (mean SEM) [1]: 3.3±0.9 mm Hg | time for which IOP was reduced (p<0.05) [1]: only at 1 hour

CC(C)OC(=O)CCC/C=C\C[C@@H]1[C@@H](CC[C@@H](O)CCc2ccccc2)[C@H](O)C[C@@H]1O [latanoprost, reference compound]
Intraocular Pressure Mean ± SEM, treated eyes (drug) (normal monkey eyes [3]; [7]): 13.2 ± 0.7 mmHg | lowering of IOP in normal monkey eye (normal monkey eyes [3]; [8]): 10.8% | Outflow Facility Mean ± SEM, treated eyes (drug) (normal monkey eyes [4]; [7]): 0.76 ± 0.08 μl/min/mmHg | effect on outflow facility in normal monkey eye (normal monkey eyes [4]; [8]): not significant effect
